Source: paper PMC11943723, “Synthesis and Biological Activity of Glycosyl Thiazolyl Disulfides Based on Thiacarpine, an Analogue of the Cytotoxic Alkaloid Polycarpine from the Ascidian Polycarpa aurata” (Marine Drugs, 2025)
≈ marks a conversion by molar mass, not a printed value. Read-outs that look alike come from different tables or passages of the source.

Legend:
[1] = tested on: Hep G2 (hepatocellular carcinoma); assay: MTT cell viability assay, Hep G2; type: cell-based; conditions: Homo sapiens, HepG2, 24 h incubation, read-out: Cytotoxicity EC50, Hep G2
Source text: (§1) Human erythrocytes were purchased from the blood transfusion station Vladivostok. Human breast cancer cell lines MCF-7^HTB−22, and MDA-MB-231^CRM-HTB−26, liver hepatocellular carcinoma Hep G2^HB−8065, prostate adenocarcinoma PC-3^CRL−1435, cervical adenocarcinoma HeLa^CRM-CCL−2, and normal bronchial epithelial cells BEAS-2B ^CRL−3588 were received from ATCC (Manassas, VA, USA).
(§2) DMEM medium (Biolot, Russia) with 1% penicillin/streptomycin and 10% fetal bovine serum (FBS) (Biolot, Russia) was used for cultivation of Hep G2, PC-3, HeLa, and Beas-2b. MEM medium (Biolot, Russia) with 1% penicillin/streptomycin sulfate (Biolot, Russia) and FBS (Biolot, Russia) to a final concentration of 10% for MCF-7 and MDA-MB-231 cells.
(§3) The effect of the studied compounds on the viability of human cancer and normal cells was determined using the MTT (3-[4,5-dimethylthiazol-2-yl]-2,5 diphenyl tetrazolium bromide) assay. Briefly, 6 × 10^3 cells per well were seeded into 96-well plates and incubated for 24 h for adhesion, followed by incubation for 24 h with different concentrations of the substances. After incubation, the medium containing the test substances was replaced with 100 µL of fresh medium. Then, 10 μL of MTT (Sigma-Aldrich, Madison, WI, USA) reagent (5 mg/mL MTT in PBS) was added into the cells and the plates for additional 4 h. Thereafter, 100 µL of SDS-HCl solution (1 g SDS/10 mL dH2O/17 µL 6N HCl) was added to each well and incubated for 18 h. The absorbance of the converted formazan dye was measured using a Multiskan FC microplate photometer (Thermo Scientific, Waltham, MA, USA) at a wavelength of 570 nm. All experiments were performed in triplicate. Cytotoxic activity was expressed as a percentage of the cell viability.

[2] = MTT cell viability assay, BEAS-2B normal cells; type: cell-based; conditions: human, BEAS-2B normal bronchial epithelial cells, 24 h incubation, read-out: Cytotoxicity EC50, BEAS 2B
Source text: as §1, §2, §3

HeLa cells [3] = assay: Wound scratch migration assay; type: cell-based; conditions: Homo sapiens, 24 h, read-out: Migration inhibition effect
Method: To analyze the effect of the tested compounds on the migration of HeLa tumor cells, special migration inserts (Culture-insert 2 Well 24, ibiTreat, Martinsried, Germany) were used, which left a gap of 500 ± 50 μm (according to the manufacturer’s data) between the cells attached to the plate. HeLa cells at a concentration of 5 × 10^5 were added to each well of the migration insert for 24 h, the insert was removed, and the cells were washed twice with PBS to remove cell debris and floating cells and loaded with the fluorescent probe CFDA-SE (Lumiprobe, Moscow, Russia) at a concentration of 10 µM for 5 min. The cells were treated with different concentrations of the studied compounds for 0 and 24 h. Cells treated with culture medium alone were used as vehicle controls. Cell migration in the wound area was observed under a fluorescence microscope (MIB-2-FL, LOMO, St. Petersburg, Russia) with a 10× objective.

[4] = tested on: MDA-MB-231 (triple-negative breast cancer); assay: MTT cell viability assay, MDA-MB-231; type: cell-based, human; conditions: 24 h incubation, read-out: Cytotoxicity EC50, MDA-MB-231 (TNBC)
Source text: as §1, §2, §3

HeLa (cervical cancer) = assay: MTT cell viability assay, HeLa; type: cell-based, human; conditions: 24 h incubation, read-out: Cytotoxicity EC50, HeLa
Source text: as §1, §2, §3

[5] = tested on: Escherichia coli (VKPM B-7935); assay: Antimicrobial activity, inhibition of microbial growth (optical density); type: cell-based; conditions: Escherichia coli; 18 h, OD 620 nm; read-out: Inhibition of Microbial Growth MIC50, E. coli
Method: (§4) The antimicrobial activity of the compounds was determined against Gram-positive bacteria Staphylococcus aureus (ATCC 21027), Gram-negative bacteria Escherichia coli (VKPM B-7935), and yeast-like fungi Candida albicans (KMM 455) (all test strains were obtained from the Collection of Marine Microorganisms KMM PIBOC FEB RAS) in liquid nutrient media. Test cultures of S. aureus, E. coli, and C. albicans were grown in Petri dishes on a solid nutrient medium (Mueller–Hinton broth with the addition of agar—16.0 g/L) at 37 °C for 24 h. The antimicrobial activity of the compounds was determined by the change in optical density and expressed as the percentage of bacterial inhibition at different concentrations of substances added to the well of the microorganism suspension, compared to the control. The compounds were dissolved in dimethyl sulfoxide (DMSO) at a concentration of 10 mM and stored at −20 °C. Before the experiment, the solution of substances in DMSO was diluted with PBS at a concentration of 0.5–100.0 µM and added to the wells so that the concentration of DMSO in the culture medium was less than 1%. Antimicrobial activity was determined in 96-well microplates in a liquid Mueller–Hinton nutrient medium. For S. aureus, E. coli, and C. albicans, a bacterial suspension of 10^6 CFU in 1 mL of the media was used, 90 μL was added to each well of the microplates and then incubated in a thermostatted shaker at 37 °C for 18 h. Inhibition of microorganism growth was assessed by measuring the optical density at 620 nm using a microplate reader (Thermo Fisher Scientific, Waltham, MA, USA) after preliminary shaking of the plates for 10 min. All experiments were performed in triplicate. Gentamicin (S. aureus and E. coli) and nitrofungin (C. albicans) were used as positive controls, and 1% DMSO in PBS was used as a negative control.

[6] = tested on: Staphylococcus aureus (ATCC 21027); assay: as above; type: cell-based; conditions: Staphylococcus aureus, ATCC21027; 18 h, OD 620 nm; read-out: Inhibition of Microbial Growth MIC50, S. aureus
Method: as §4

[7] = tested on: Candida albicans (KMM 455); assay: as above; type: cell-based; conditions: Candida albicans, KMM455; 18 h, OD 620 nm; read-out: Inhibition of Microbial Growth MIC50, C. albicans
Method: as §4

[8] = in vivo experiments; cited from earlier work
[9] = tested on: Escherichia coli (VKPM B-7935); assay: Inhibition of biofilm formation (MTT); type: cell-based; conditions: 24 h
Method: (§5) Biofilm formation was performed according to the method described by Walencka et al., with minor modifications. The compounds were dissolved in dimethyl sulfoxide (DMSO) at a concentration of 10 mM and stored at −20 °C. Before the experiment, the solution of substances in DMSO was diluted with PBS at a concentration of 0.5–100.0 µM and added to the wells so that the concentration of DMSO in the culture medium was less than 1%. Biofilm formation was assessed in 96-well microplates in a liquid Mueller–Hinton nutrient medium. For S. aureus, E. coli, and C. albicans, a bacterial suspension of 10^6 CFU in 1 mL of medium was used, 90 μL was added to each well of the microplates and then incubated in a thermostatted shaker at 37 °C for 24 h. After incubation, the suspension of planktonic microorganisms was removed from the plate and washed with PBS. Next, 100 μL of PBS and 10 μL of MTT (3-(4,5-dimethylthiazol-2-yl)-2,5-diphenyltetrazolium bromide, MTT reagent, Sigma) stock solution (5 mg/mL) were added to the wells and incubated for 3 h at 37 °C. After incubation, all the solution was removed from the wells, 100 μL of DMSO was added, and the plate was shaken for 10 min until all formazan crystals had dissolved. The absorption was measured using a plate reader (Thermo Fisher Scientific, Waltham, MA, USA) at a wavelength of 570 nm. The activity of the substances was assessed by the change in optical density compared with that of the control. All experiments were performed in triplicate. Gentamicin (S. aureus and E. coli) and nitrofungin (C. albicans) were used as positive controls, and 1% DMSO in PBS was used as a negative control.

[10] = tested on: Staphylococcus aureus (ATCC 21027); assay: Inhibition of biofilm formation (MTT); type: cell-based; conditions: 24 h
Method: as §5

HeLa cells [11] = assay: Colony formation (clonogenic) assay; type: cell-based; conditions: Homo sapiens, 336 h, 10 µM, 14 days
Method: The effect of the test compounds on HeLa cell proliferation was analyzed using a clonogenic assay. Briefly, HeLa cells were cultured in 6-well plates at a density of 1 × 10^2 cells per well, and compounds were added at concentrations of 5 or 10 μM. Untreated culture medium was used as a control. […] Before fixation and staining, the medium was removed and the cells were washed twice with PBS. The colonies were then fixed with methanol for 25 min and stained with 0.5% crystal violet for 25 min at room temperature. The plates were then washed with water and air-dried.

Human erythrocytes = assay: Hemolytic activity (destruction of erythrocyte membranes); type: cell-based
Source text: as §1

[12] = tested on: Candida albicans (KMM 455); assay: Inhibition of biofilm formation (MTT); type: cell-based; conditions: 24 h
Method: as §5

LLC = conditions: injected intraperitoneally; cited from earlier work
melanoma B-16 = conditions: injected intraperitoneally; cited from earlier work

Row | SMILES | EC50 [1] [µM] | EC50 at 24 h [2] [µM] | inhibition at 10 µM (HeLa cells [3]) [%] | EC50 [4] [µM] | EC50 ([4]; Homo sapiens, MDA-MB-231, 24 h) [µM] | EC50 (HeLa (cervical cancer)) [µM] | EC50 (HeLa (cervical cancer); Homo sapiens, HeLa, 24 h) [µM] | MIC50 [5] [µM] | MIC50 [6] [µM] | MIC50 [7] [µM] | Acute toxicity in vivo [8] | Inhibition of Biofilm Formation MIC50, E. coli [9] [µM] | Inhibition of Biofilm Formation MIC50, S. aureus [10] [µM] | inhibition at 10 µM (HeLa cells [11]) [%] | Hemolytic activity, erythrocytes (Human erythrocytes) [µM] | Inhibition of Biofilm Formation MIC50, C. albicans [12] [µM] | Inhibition of development of solid tumor LLC (LLC) | Inhibition of development of solid tumor melanoma B-16 (melanoma B-16)
1 | CC(=O)OC[C@H]1O[C@@H](SSc2sc(N)nc2-c2ccc(C)cc2)[C@H](OC(C)=O)[C@@H](OC(C)=O)[C@@H]1OC(C)=O [Compound 4e, 5-[(2,3,4,6-Tetra-O-acetyl-β-D-glucopyranosyl)disulfanyl]-2-amino-4-(p-tolyl)thiazole] | > 25 | > 25 | ~43 | 15 | 15 | 18.5 | 18.5 | > 50 | > 50 | 17.7 ± 0.3 (≈ 10.3 µg/mL) | – | – | – | – | – | – | – | –
2 | COc1ccc(-c2nc(N)n(C)c2SSc2c(-c3ccc(OC)cc3)nc(N)n2C)cc1 [polycarpine] | – | – | – | – | – | – | – | – | – | – | acute toxicity | – | – | – | – | – | – | –
3 | CC(=O)OC[C@H]1O[C@@H](SSc2sc(N)nc2-c2ccc(Br)cc2)[C@H](OC(C)=O)[C@@H](OC(C)=O)[C@@H]1OC(C)=O [Compound 4c, 5-[(2,3,4,6-Tetra-O-acetyl-β-D-glucopyranosyl)disulfanyl]-2-amino-4-(4-bromophenyl)thiazole] | 24.3 | 15.5 | – | – | 21.7 | – | 19.4 | 6.9 ± 0.5 (≈ 4.48 µg/mL) | 2.3 ± 0.3 (≈ 1.49 µg/mL) | 7.1 ± 0.7 (≈ 4.61 µg/mL) | – | 8.04 | 7.94 | 76 | > 25 | – | – | –
4 | CC(=O)O[C@@H]1[C@@H](OC(C)=O)[C@H](SSc2sc(N)nc2-c2ccc(Cl)cc2)OC[C@H]1OC(C)=O [Compound 4i, 5-[(2,3,4-Tri-O-acetyl-β-D-xylopyranosyl)disulfanyl]-2-amino-4-(4-chlorophenyl)thiazole] | > 25 | > 25 | – | – | > 25 | – | > 25 | 8.7 ± 0.9 (≈ 4.64 µg/mL) | 3.1 ± 0.3 (≈ 1.65 µg/mL) | 2.8 ± 0.3 (≈ 1.49 µg/mL) | – | – | 6.25 | – | > 25 | 4.08 | – | –
5 | CC(=O)O[C@@H]1[C@@H](OC(C)=O)[C@H](SSc2sc(N)nc2-c2ccc(Br)cc2)OC[C@H]1OC(C)=O [Compound 4h, 5-[(2,3,4-Tri-O-acetyl-β-D-xylopyranosyl)disulfanyl]-2-amino-4-(4-bromophenyl)thiazole] | 24.6 | 19.9 | ~43 | – | 21.1 | – | 21.3 | 5.8 ± 0.4 (≈ 3.35 µg/mL) | 2.4 ± 0.2 (≈ 1.39 µg/mL) | 4.3 ± 0.5 (≈ 2.48 µg/mL) | – | – | 6.32 | – | > 25 | 7.11 | – | –
6 | COc1ccc(-c2nc(N)sc2SSc2sc(N)nc2-c2ccc(OC)cc2)cc1 [Compound 1a] | > 25 | > 25 | – | – | 21.4 | – | > 25 | > 50 | 10.3 ± 1.1 (≈ 4.89 µg/mL) | 38.2 ± 3.2 (≈ 18.1 µg/mL) | – | – | – | – | – | – | effectively inhibited | effectively inhibited
